Test results from patent US20150065416A1, “NOVEL DRUG COMBINATION” (FAB PHARMA SAS, priority 2013, published 2015).

What was measured:
A. baumannii SAN-94040 = test: Mouse model of A. baumannii pneumonia, Study 1: survival; assay type: in vivo, Acinetobacter baumannii
Protocol: The bacterial inoculum was prepared in order to obtain a suspension containing 10^8 CFU/mL of Acinetobacter baumannii in saline.
Experimentations were performed with six-week old female C3H/HeN mice (18-20 g, Breeding Centre JANVIER (Ile saint Genest Mayenne 53)) because of their particular susceptibility to Acinetobacter baumannii and the reproducibility of the results (inbreeding in the breed). Each mouse was individually marked and housed in cages containing five animals/cage under ventilated and controlled (temperature and humidity) atmosphere.
The mice were rendered transiently neutropenic by 2 intra-peritoneal (IP) injections of 150 μL of cyclophosphamide (Endoxan® 150 mg/kg) 4 (D-4) and 3 (D-3) days before the Acinetobacter baumannii inoculation (Day 0). This transient immunosuppression was sufficient to facilitate the development of the A. baumannii pneumonia while allowing the recovery of the neutrophil influx 2 (Day 2) days after inoculation in order to avoid or limit a systemic bacterial dissemination.
Mice were anesthetized by a mixture of oxygen and isoflurane. The bacterial inoculation was performed on Day 0 by intra-tracheal installation using an endotracheal catheter (50 μl of the suspension, thus 5.106 CFU). The positioning of the catheter in the trachea (instead of in the oesophagus) was checked by a “ring test”. The bacterial count in lungs was checked for all study groups by sacrificing one mouse immediately after inoculation.
Survival observations were assessed twice daily, up to 4 days post infection. The survival rates were compared with the Chi-square test or the Fisher exact test as appropriate. The survival curves were compared by the Kaplan-Meier method.
The aim of this experiment was to assess the […], with compound (I) via intra-peritoneal route at 200 mg/kg 3 times daily (every 8 hours) for 1 day alone and in combination with meropenem at 50 mg/kg 3 times daily (every 8 hours) for 1 day or with amikacin at 18 mg/kg 3 times daily (every 8 hours) for 1 day.

A. baumannii isolates [1] = test: Checkerboard testing (compound (I)/antibacterial agent interaction, FIC index); assay type: cell-based, Acinetobacter baumannii
In short: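 Two-fold dilutions of compound (I) alone or combined with amikacin, gentamicin, colistin, meropenem or tobramycin (0.25–2×MIC) were tested against 20 isolates (susceptible, amikacin-, colistin-, meropenem-resistant). Inoculum was ~4-5×10^4 CFU/ml, incubated at 35° C for 16-20 h. Interaction was scored by FIC index: ≤0.5 synergy, >4 antagonism.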

A. baumannii isolates [2] = test: Time kill study (Example 4); assay type: cell-based, Acinetobacter baumannii; conditions: for Time to kill 99.9%: alone; for MIC: Acinetobacter baumannii, read-out: MIC
Protocol: A total of 12 isolates were tested (three per sub-group either susceptible, meropenem-resistant, amikacin-resistant or colistin-resistant). Two combinations were tested per isolate. Time-kill kinetics were performed by testing compound (I) and an additional antibacterial agent (amikacin, colistin and meropenem) individually at 1× and 4× the corresponding MIC of each antibacterial agent. […] Samples were taken at 0, 2, 4, 8 and 24 hours in order to determine colony forming units (CFU/mL).
Time-kill studies were carried out as described in General Procedures using combinations of compound (I) with amikacin, meropenem and colistin, respectively.

[3] = Study 1, 24 h after infection, doses as E210
[4] = Study 1, 72 h after infection, doses as E210

Compound: CCc1cc(O)c(Oc2ccc(C(N)=O)cc2F)cc1F [compound (I), 4-(4-ethyl-5-fluoro-2-hydroxyphenoxy)-3-fluorobenzamide]
- survivors (%) (A. baumannii SAN-94040; Study 1, 0 h after infection, doses as E210): 100%
- No. of survivors (A. baumannii SAN-94040; [3]): 10
- survivors (%) (A. baumannii SAN-94040; [3]): 71%
- No. of survivors (A. baumannii SAN-94040; Study 1, 48 h after infection, doses as E210): 0
- No. of survivors (A. baumannii SAN-94040; [4]): 0
- survivors (%) (A. baumannii SAN-94040; [4]): 0%
- No. of survivors (A. baumannii SAN-94040; Study 1, 96 h after infection, doses as E210): 0
- No. of survivors (A. baumannii SAN-94040; Study 1, C3H/HeN mice, 0 h after SAN-94040 infection, compound (I) 200 mg/kg, amikacin 18 mg/kg, meropenem 50 mg/kg q 8 h I.P.): 14
- time post-infection within which all animals died (A. baumannii SAN-94040; Study 1, SAN-94040): ≤ 48 h
- MIC (A. baumannii isolates [1]; A. baumannii 441142, colistin-resistant): 2 µg/mL
- MIC (A. baumannii isolates [1]; A. baumannii 441160, colistin-resistant): 4 µg/mL
- MIC (A. baumannii isolates [1]; A. baumannii 463996, colistin-resistant): 2 µg/mL
- MIC (A. baumannii isolates [1]; A. baumannii 466936, colistin-resistant): 16 µg/mL
- MIC (A. baumannii isolates [1]; A. baumannii 618649, meropenem-resistant): 4 µg/mL
- MIC (A. baumannii isolates [1]; A. baumannii 638115, amikacin-resistant): 8 µg/mL
- MIC (A. baumannii isolates [1]; A. baumannii 655932, amikacin-resistant): 2 µg/mL
- MIC (A. baumannii isolates [1]; A. baumannii 661954, amikacin-resistant): 8 µg/mL
- MIC (A. baumannii isolates [1]; A. baumannii 667848, meropenem-resistant): 8 µg/mL
- MIC (A. baumannii isolates [1]; A. baumannii 670348, susceptible): 4 µg/mL
- MIC (A. baumannii isolates [1]; A. baumannii 671050, meropenem-resistant): 8 µg/mL
- MIC (A. baumannii isolates [1]; A. baumannii 672190, susceptible): 4 µg/mL
- MIC (A. baumannii isolates [1]; A. baumannii 674340, susceptible): 1 µg/mL
- MIC (A. baumannii isolates [1]; Acinetobacter baumannii, A. baumannii 441142, colistin-resistant, read-out: MIC): 4 µg/mL
- MIC (A. baumannii isolates [1]; Acinetobacter baumannii, A. baumannii 441160, colistin-resistant, read-out: MIC): 8 µg/mL
- MIC (A. baumannii isolates [1]; Acinetobacter baumannii, A. baumannii 463996, colistin-resistant, read-out: MIC): 4 µg/mL
- MIC (A. baumannii isolates [1]; Acinetobacter baumannii, A. baumannii 466936, colistin-resistant, read-out: MIC): 8 µg/mL
- MIC (A. baumannii isolates [1]; Acinetobacter baumannii, A. baumannii 517303, colistin-resistant, read-out: MIC): 4 µg/mL
- MIC (A. baumannii isolates [1]; Acinetobacter baumannii, A. baumannii 618649, meropenem-resistant, read-out: MIC): 2 µg/mL
- MIC (A. baumannii isolates [1]; Acinetobacter baumannii, A. baumannii 625917, meropenem-resistant, read-out: MIC): 4 µg/mL
- MIC (A. baumannii isolates [1]; Acinetobacter baumannii, A. baumannii 628760, susceptible, read-out: MIC): 2 µg/mL
- MIC (A. baumannii isolates [1]; Acinetobacter baumannii, A. baumannii 637723, amikacin-resistant, read-out: MIC): 2 µg/mL
- MIC (A. baumannii isolates [1]; Acinetobacter baumannii, A. baumannii 638115, amikacin-resistant, read-out: MIC): 4 µg/mL
- MIC (A. baumannii isolates [1]; Acinetobacter baumannii, A. baumannii 650216, meropenem-resistant, read-out: MIC): 8 µg/mL
- MIC (A. baumannii isolates [1]; Acinetobacter baumannii, A. baumannii 655932, amikacin-resistant, read-out: MIC): 4 µg/mL
- MIC (A. baumannii isolates [1]; Acinetobacter baumannii, A. baumannii 661954, amikacin-resistant, read-out: MIC): 4 µg/mL
- MIC (A. baumannii isolates [1]; Acinetobacter baumannii, A. baumannii 667848, meropenem-resistant, read-out: MIC): 4 µg/mL
- MIC (A. baumannii isolates [1]; Acinetobacter baumannii, A. baumannii 670348, susceptible, read-out: MIC): 2 µg/mL
- MIC (A. baumannii isolates [1]; Acinetobacter baumannii, A. baumannii 671050, meropenem-resistant, read-out: MIC): 4 µg/mL
- MIC (A. baumannii isolates [1]; Acinetobacter baumannii, A. baumannii 672190, susceptible, read-out: MIC): 8 µg/mL
- MIC (A. baumannii isolates [1]; Acinetobacter baumannii, A. baumannii 674340, susceptible, read-out: MIC): 2 µg/mL
- Time to kill 99.9% (A. baumannii isolates [2]; AMK-R-1, 1xMIC): >24 h
- Time to kill 99.9% (A. baumannii isolates [2]; AMK-R-1, 4xMIC): >24 h
- Time to kill 99.9% (A. baumannii isolates [2]; AMK-R-2, 1xMIC): >24 h
- Time to kill 99.9% (A. baumannii isolates [2]; AMK-R-2, 4xMIC): >24 h
- Time to kill 99.9% (A. baumannii isolates [2]; AMK-R-3, 1xMIC): >24 h
- Time to kill 99.9% (A. baumannii isolates [2]; AMK-R-3, 4xMIC): >24 h
- MIC (A. baumannii isolates [2]; isolate AMK-R-1): 4 µg/mL
- MIC (A. baumannii isolates [2]; isolate AMK-R-2): 4 µg/mL
- MIC (A. baumannii isolates [2]; isolate AMK-R-3): 2 µg/mL
- MIC (A. baumannii isolates [2]; isolate COL-R-1): 8 µg/mL
- MIC (A. baumannii isolates [2]; isolate COL-R-2): 4 µg/mL
- MIC (A. baumannii isolates [2]; isolate COL-R-3): 16 µg/mL
- MIC (A. baumannii isolates [2]; isolate MPM-R-1): 8 µg/mL
- MIC (A. baumannii isolates [2]; isolate MPM-R-2): 4 µg/mL
- MIC (A. baumannii isolates [2]; isolate MPM-R-3): 4 µg/mL
- MIC (A. baumannii isolates [2]; isolate Sus-1): 1 µg/mL
- MIC (A. baumannii isolates [2]; isolate Sus-2): 2 µg/mL
- MIC (A. baumannii isolates [2]; isolate Sus-3): 8 µg/mL
- MIC (A. baumannii isolates [2]; isolate printed MPM-R-1 (second such line of Table 8, r14)): 4 µg/mL
- Time to kill 99.9% (A. baumannii isolates [2]; COL-R-1, 1xMIC): >24 h
- Time to kill 99.9% (A. baumannii isolates [2]; COL-R-1, 4xMIC): >24 h
- Time to kill 99.9% (A. baumannii isolates [2]; COL-R-2, 1xMIC): >24 h
- Time to kill 99.9% (A. baumannii isolates [2]; COL-R-2, 4xMIC): >24 h
- Time to kill 99.9% (A. baumannii isolates [2]; COL-R-3, 1xMIC): >24 h
- Time to kill 99.9% (A. baumannii isolates [2]; COL-R-3, 4xMIC): >24 h
- Time to kill 99.9% (A. baumannii isolates [2]; MPM-R-1 (second line, Table 8 r14), 1xMIC): >24 h
- Time to kill 99.9% (A. baumannii isolates [2]; MPM-R-1 (second line, Table 8 r14), 4xMIC): >24 h
- Time to kill 99.9% (A. baumannii isolates [2]; MPM-R-1, 1xMIC): >24 h
- Time to kill 99.9% (A. baumannii isolates [2]; MPM-R-1, 4xMIC): >24 h
- Time to kill 99.9% (A. baumannii isolates [2]; MPM-R-2, 1xMIC): >24 h
- Time to kill 99.9% (A. baumannii isolates [2]; MPM-R-2, 4xMIC): >24 h
- Time to kill 99.9% (A. baumannii isolates [2]; MPM-R-3, 1xMIC): >24 h
- Time to kill 99.9% (A. baumannii isolates [2]; MPM-R-3, 4xMIC): >24 h
- Time to kill 99.9% (A. baumannii isolates [2]; Sus-1, 1xMIC): >24 h
- Time to kill 99.9% (A. baumannii isolates [2]; Sus-1, 4xMIC): >24 h
- Time to kill 99.9% (A. baumannii isolates [2]; Sus-2, 1xMIC): >24 h
- Time to kill 99.9% (A. baumannii isolates [2]; Sus-2, 4xMIC): >24 h
- Time to kill 99.9% (A. baumannii isolates [2]; Sus-3, 1xMIC): >24 h
- Time to kill 99.9% (A. baumannii isolates [2]; Sus-3, 4xMIC): >24 h
- effect in time-kill studies when tested alone (A. baumannii isolates [2]; alone at 1× or 4×MIC): bacteriostatic
